# Source: patent publication US7423010B2, “Nonporous microparticle-prodrug conjugates for treatment of infection” (Oregon Health & Science University, priority 1994, dated 2008)
# Tested on: murine NIH 3T3 cells
# Assay: Growth inhibitory effects of prodrugs on NIH 3T3 cells in culture, with or without esterase-containing brain homogenate
# Type: cell-based
# Protocol: The antifolate drug methotrexate was conjugated with a variety of polar lipid carriers via specific linker moieties having specific reactive functional groups. […] The compounds were tested for their growth inhibitory effects on murine NIH 3T3 cells growing in cell culture. […] […] In a second set of experiments was included in the growth media an amount of a brain homogenate containing an enzymatically-active esterase.
smiles,measurement,setting,value
"CN(Cc1cnc2nc(N)nc(N)c2n1)c1ccc(C(=O)N[C@@H](CCC(=O)O)C(=O)O)cc1 [Mtx, methotrexate]",# cells/plate,"drug/FBS, cells incubated 1 hour at 37° C., cell growth and survival determined 70 hours after drug addition",0.16 × 10^6 cells/plate
same,# cells/plate,"drug/FBS, cells incubated 2 hours at 37° C., cell growth and survival determined 72 hours after drug addition",0.13 × 10^6 cells/plate
same,# cells/plate,"drug/brain extract, cells incubated 1 hour at 37° C., cell growth and survival determined 70 hours after drug addition",0.09 × 10^6 cells/plate
same,# cells/plate,"drug/brain extract, cells incubated 2 hours at 37° C., cell growth and survival determined 72 hours after drug addition",0.06 × 10^6 cells/plate
